Data from patent publication US10562857B2 (AFASCI, Inc., priority 2015, dated 2020).
Where two headings read alike, the source gives them in different places.

Biological target: T1, Cav3.2 channel (Homo sapiens, UniProt O95180)
T1 construct: expressed in transfected cells; host or cells: HEK-293, tetracycline inducible expression system (Invitrogen)
Experiment: Whole-cell patch clamp of T-type Cav3.2 channel expressed in HEK293 cells
Type: cell-based
Experimental: Cav3.1, Cav3.2 or Cav3.3 channels were expressed in human embryonic kidney (HEK)-293 cells using a tetracycline inducible expression system (Invitrogen). Cells were maintained in 25 cm^2 tissue culture flasks at 37° C., 5% CO2, and 100% relative humidity in D-MEM/F12 (Dulbecco's Modified Eagle Medium/Nutrient Mixture F-12; Gibco) supplemented with fetal bovine serum (FBS, 10% v/v), sodium pyruvate (0.5 mM, Gibco), penicillin-streptomycin (100 U/mL, 100 μg/mL) and Geneticin® Selective antibiotic (G418; 0.5 mg/mL). Cells were detached from the flask base using a non-enzymatic cell dissociation solution (Cellstripper, Corning), removed and re-seeded on to poly-D-lysine coated glass coverslips in 35 mm dishes. Cells in dishes were further supplemented with G418 at a final concentration of 1 mg/mL and after 24 hours, expression of Cav3.2 was induced with 1 μg/mL tetracycline. The medium for the HEK-293 cells was composed of D-MEM/F-12 (Dulbecco's Modified Eagle Medium/Nutrient Mixture F-12; Gibco, #11330-032) and 15 mM HEPES buffer, with L-glutamine and pyridoxine hydrochloride. It was supplemented with FBS (Fetal Bovine Serum), P/S (Penicillin/Streptomycin) (Gibco, #15140-122), and sodium pyruvate 100 mM (Gibco, #11360-070). At least 24 hours before the assay, expression of the alpha-2-delta-1 and beta2a subunits of the calcium channel were induced with 1 ug/mL tetracycline.
Whole-cell voltage clamp recordings were performed on rat or mouse DRG neurons within 2 days after acutely dissociation or cultured HEK293 cells expressing T-type channels (encoded by Cav3.1, Cav3.2 or Cav3.3 channels). All experiments were performed at room temperature (around 21° C.). Whole-cell currents were recorded using a MultiClamp 700B amplifier and analyzed offline with pCLAMP10.4 software (Molecular Devices, LLC, Sunnyvale Calif., USA). To record calcium currents in DRG and HEK293 cells, the external solution was composed (in mM) of 115 choline-Cl, 30 TEA-Cl, 2 CaCl2, 10 glucose and 10 HEPES (pH 7.3-7.4 adjusted with TEA-OH; osmolality verified as 295 mOsm/kg). The internal solution was composed (in mM) of 125 CsCl, 10 HEPES (acid), 10 EGTA (ethylene glycol tetraacetic acid), 1 CaCl2, 1 MgCl2, 4 MgATP and 0.3 MgGTP (pH 7.3-7.4 adjusted with CsOH; osmolality verified as 295 mOsm/kg). Since the sodium ions were absent in the external solution, tetrodoctoxin was not needed. Calcium currents were recorded at a holding potential of −100 mV and then depolarized to −30 mV for 100 ms to activate either Cav3.1, Cav3.2, or Cav3.3 expressed in HEK cells. An interpulse interval of 10 seconds allowed the channel recovery from inactivation, and achieved stable current recordings. To record sodium (Na^+) currents in DRG neurons, the external solution used the modified Krebs solution specified above. The internal solution was composed (in mM) of 120 CsF, 10 HEPES, 11 EGTA, 1 CaCl2, 1 MgCl2, 10 TEA-Cl, 4 MgATP and 0.3 MgGTP (pH 7.3-7.4 adjusted with CsOH). […] To record potassium currents in DRG neurons, the external solution used the modified Kreb's solution specified above. The internal solution was composed (in mM) of 65 KCl, 80 KF, 5 KOH, 10 EGTA, 2 MgATP (pH 7.3-7.4 adjusted with KOH). Recording electrodes were fabricated using a P-87 puller (Sutter Instrument Co., Novato, Calif., USA). The tip of resistance was 3-4 MQ in bath and the series resistance was less than 10 MΩ after whole cell configuration. All reagents were purchased from Sigma unless specified otherwise. Test compounds were usually applied via a rapid solution exchange system with 8 fine polyplastic tubings (100 μm, OD) glued in a holder in parallel and located closely to the recorded cells. […]

[1] = Table 1, tested at at least 4 concentrations, read-out: IC50
[2] = HEK293, Table 1 primary screening

T1 sequence (O95180 whole entry): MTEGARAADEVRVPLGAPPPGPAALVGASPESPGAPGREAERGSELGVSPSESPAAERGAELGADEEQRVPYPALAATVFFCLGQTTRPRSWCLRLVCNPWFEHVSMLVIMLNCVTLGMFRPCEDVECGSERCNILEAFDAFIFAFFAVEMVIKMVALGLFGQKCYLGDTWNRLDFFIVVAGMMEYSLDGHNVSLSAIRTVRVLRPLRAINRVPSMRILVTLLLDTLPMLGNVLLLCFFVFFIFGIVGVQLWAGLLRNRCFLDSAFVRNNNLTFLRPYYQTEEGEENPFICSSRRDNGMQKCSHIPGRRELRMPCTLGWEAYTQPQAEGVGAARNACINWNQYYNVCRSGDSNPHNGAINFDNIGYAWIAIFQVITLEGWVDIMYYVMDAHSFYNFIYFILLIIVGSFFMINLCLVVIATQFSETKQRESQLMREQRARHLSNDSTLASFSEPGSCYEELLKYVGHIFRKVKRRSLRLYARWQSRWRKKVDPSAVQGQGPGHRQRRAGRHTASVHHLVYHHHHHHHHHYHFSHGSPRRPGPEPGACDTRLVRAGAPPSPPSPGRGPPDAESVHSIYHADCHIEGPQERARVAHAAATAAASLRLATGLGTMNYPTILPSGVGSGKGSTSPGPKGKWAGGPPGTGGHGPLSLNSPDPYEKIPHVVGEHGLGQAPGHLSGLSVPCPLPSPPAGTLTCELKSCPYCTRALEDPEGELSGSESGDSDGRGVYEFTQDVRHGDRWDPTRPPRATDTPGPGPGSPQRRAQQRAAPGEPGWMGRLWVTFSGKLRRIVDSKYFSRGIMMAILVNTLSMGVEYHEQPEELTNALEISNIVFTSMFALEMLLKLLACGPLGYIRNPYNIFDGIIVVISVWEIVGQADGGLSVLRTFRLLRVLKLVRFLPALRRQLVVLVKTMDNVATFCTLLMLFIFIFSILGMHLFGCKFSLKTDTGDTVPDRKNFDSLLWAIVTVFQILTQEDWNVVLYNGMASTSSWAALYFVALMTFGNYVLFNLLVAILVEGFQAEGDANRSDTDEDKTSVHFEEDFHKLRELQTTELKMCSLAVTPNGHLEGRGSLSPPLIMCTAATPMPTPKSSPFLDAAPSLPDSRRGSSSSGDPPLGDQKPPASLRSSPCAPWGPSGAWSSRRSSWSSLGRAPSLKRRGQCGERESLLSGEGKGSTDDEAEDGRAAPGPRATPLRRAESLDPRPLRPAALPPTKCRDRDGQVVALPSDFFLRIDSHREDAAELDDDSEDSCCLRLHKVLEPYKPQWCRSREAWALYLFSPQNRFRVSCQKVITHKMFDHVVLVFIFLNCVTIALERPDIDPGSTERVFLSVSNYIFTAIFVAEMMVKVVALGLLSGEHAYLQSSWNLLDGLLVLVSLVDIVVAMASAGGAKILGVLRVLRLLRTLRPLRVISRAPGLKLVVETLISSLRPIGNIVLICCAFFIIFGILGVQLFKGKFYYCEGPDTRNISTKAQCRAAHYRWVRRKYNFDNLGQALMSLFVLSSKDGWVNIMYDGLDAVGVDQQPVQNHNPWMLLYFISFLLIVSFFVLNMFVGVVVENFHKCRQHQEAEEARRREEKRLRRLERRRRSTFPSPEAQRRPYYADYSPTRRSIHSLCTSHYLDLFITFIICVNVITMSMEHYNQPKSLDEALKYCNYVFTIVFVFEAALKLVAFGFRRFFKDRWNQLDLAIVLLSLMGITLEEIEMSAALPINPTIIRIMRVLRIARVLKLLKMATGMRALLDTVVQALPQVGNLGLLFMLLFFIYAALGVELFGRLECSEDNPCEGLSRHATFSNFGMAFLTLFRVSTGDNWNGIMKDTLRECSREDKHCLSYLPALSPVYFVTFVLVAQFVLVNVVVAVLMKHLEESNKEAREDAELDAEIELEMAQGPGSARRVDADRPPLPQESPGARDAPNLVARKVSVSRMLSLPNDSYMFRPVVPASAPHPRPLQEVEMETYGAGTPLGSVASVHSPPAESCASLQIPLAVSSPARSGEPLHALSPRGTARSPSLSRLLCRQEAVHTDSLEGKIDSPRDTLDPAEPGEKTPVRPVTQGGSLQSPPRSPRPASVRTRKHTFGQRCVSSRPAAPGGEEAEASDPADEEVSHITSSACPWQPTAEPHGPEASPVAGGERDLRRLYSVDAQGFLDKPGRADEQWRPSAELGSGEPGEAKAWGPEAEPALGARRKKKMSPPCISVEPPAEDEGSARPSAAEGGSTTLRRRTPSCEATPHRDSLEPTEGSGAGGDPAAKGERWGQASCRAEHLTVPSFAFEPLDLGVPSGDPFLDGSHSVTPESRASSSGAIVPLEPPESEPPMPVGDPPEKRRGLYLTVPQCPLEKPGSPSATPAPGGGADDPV

Row | Compound | IC50 [1] [µM] | inhibition at 1 µM [2] [%] | further results
1 | CC(C)(C)CCN1CCC2(CC1)CC2N(CC1CC1)C(=O)c1cc(Cl)cc(Cl)c1 (stereo not shown) [Example 55, 3,5-Dichloro-N-(cyclopropylmethyl)-N-(6-(3,3-dimethylbutyl)-6-azaspiro[2.5]octan-1-yl)benzamide] | 0.07 | – | –
2 | CC(C)(C)C(O)CN1CCC2(CC1)CC2NC(=O)c1cc(Cl)cc(Cl)c1 (stereo not shown) [Example 58, 3,5-Dichloro-N-(6-(2-hydroxy-3,3-dimethylbutyl)-6-azaspiro[2.5]octan-1-yl)benzamide] | 0.22 | – | –
3 | O=C(NC1CC12CCN(CC(O)c1ccc(C(F)(F)F)cc1)CC2)c1cc(Cl)cc(Cl)c1 (stereo not shown) [Example 59, 3,5-Dichloro-N-(6-(2-hydroxy-2-(4-(trifluoromethyl)phenyl)ethyl)-6-azaspiro[2.5]octan-1-yl)benzamide] | 0.07 | – | –
4 | CC(C)(C)CCN1CCC2(CCC2NC(=O)c2cc(Cl)cc(Cl)c2)CC1 (stereo not shown) [Example 69, 3,5-Dichloro-N-(7-(3,3-dimethylbutyl)-7-azaspiro[3.5]nonan-1-yl)benzamide] | 0.28 | – | –
5 | CC(C)(C)NC(=O)CN1CCC2(CCC2NC(=O)c2cc(Cl)cc(Cl)c2)CC1 (stereo not shown) [Example 71, N-(7-(2-(tert-Butylamino)-2-oxoethyl)-7-azaspiro[3.5]nonan-1-yl)-3,5-dichlorobenzamide] | 0.2 | – | –
6 | CC(C)(C)NC(=O)CN1CCC2(CC1)CC2CNC(=O)c1cc(Cl)cc(Cl)c1 (stereo not shown) [Example 87, N-((6-(2-(tert-Butylamino)-2-oxoethyl)-6-azaspiro[2.5]octan-1-yl)methyl)-3,5-dichlorobenzamide] | 0.69 | – | –
7 | CC(C)(C)CCN1CCC2(CC1)CC2CNC(=O)c1cc(Cl)cc(Cl)c1 (stereo not shown) [Example 88, 3,5-Dichloro-N-((6-(3,3-dimethylbutyl)-6-azaspiro[2.5]octan-1-yl)methyl)benzamide] | 0.09 | – | –
8 | O=C(NCC1CC12CCN(CCc1ccccc1)CC2)c1cc(Cl)cc(Cl)c1 (stereo not shown) [Example 89, 3,5-Dichloro-N-((6-phenethyl-6-azaspiro[2.5]octan-1-yl)methyl)benzamide] | 0.09 | – | –
9 | CC(C)(C)NC(=O)CN1CCC2(CC1)CC2C(=O)Nc1cc(Cl)cc(Cl)c1 (stereo not shown) [Example 90] | 0.13 | – | –
10 | CC(C)(C)CCN1CCC2(CC1)CC2C(=O)Nc1cc(Cl)cc(Cl)c1 (stereo not shown) [Example 91, N-(3,5-Dichlorophenyl)-6-(3,3-dimethylbutyl)-6-azaspiro[2.5]octane-1-carboxamide] | 0.06 | – | –
11 | O=C(Nc1cc(Cl)cc(Cl)c1)C1CC12CCN(CCc1ccccc1)CC2 (stereo not shown) [Example 92, N-(3,5-Dichlorophenyl)-6-phenethyl-6-azaspiro[2.5]octane-1-carboxamide] | – | 35 | –
12 | CC(C)(C)NC(=O)CN1CCC2(CC1)CC2CNc1cc(Cl)cc(Cl)c1 (stereo not shown) [Example 93] | 0.1 | – | –
13 | CC(C)(C)CCN1CCC2(CC1)CC2CNc1cc(Cl)cc(Cl)c1 (stereo not shown) [Example 94] | 0.13 | – | –
14 | Clc1cc(Cl)cc(NCC2CC23CCN(CCc2ccccc2)CC3)c1 (stereo not shown) [Example 95] | – | 67 | –
15 | O=C(NCC1CCN(CCC2CC2)CC1)c1ccc(Cl)s1 [Example 97, 5-Chloro-N-((1-(2-cyclopropylethyl)piperidin-4-yl)methyl)thiophene-2-carboxamide] | – | 33 | –
16 | CC(C)(C)NC(=O)CN1CCC(CNC(=O)CCc2cccc(Cl)c2)CC1 [Example 99, N-((1-(2-(tert-Butylamino)-2-oxoethyl)piperidin-4-yl)methyl)-3-(3-chlorophenyl)propanamide] | – | 75 | –
17 | O=C(CN1CCC(CNC(=O)c2ccccc2)CC1)NC1CCCCC1 [Example 100, N-((1-(2-(Cyclohexylamino)-2-oxoethyl)piperidin-4-yl)methyl)benzamide] | – | 26 | –

Row | Compound | IC50 [1] [µM] | inhibition at 1 µM [2] [%] | further results
18 | O=C(CN1CCC(CNC(=O)c2ccccc2)CC1)Nc1ccccc1 [Example 101, N-((1-(2-Oxo-2-(phenylamino)ethyl)piperidin-4-yl)methyl)benzamide] | – | 44 | –
19 | O=C(CN1CCC(CNC(=O)c2ccc(O)cc2)CC1)Nc1ccccc1 [Example 102, 4-Hydroxy-N-((1-(2-oxo-2-(phenylamino)ethyl)piperidin-4-yl)methyl)benzamide] | – | 47 | –
20 | COc1cccc(C(=O)NCC2(C)CCN(CC(=O)NC(C)(C)C)CC2)c1 [Example 108, N-((1-(2-(tert-butylamino)-2-oxoethyl)-4-methylpiperidin-4-yl)methyl)-3-methoxybenzamide] | – | 53 | –
21 | O=C(CN1CCC(CO)(CNC(=O)c2ccccc2F)CC1)Nc1ccccc1 [Example 110, 2-fluoro-N-((4-(hydroxymethyl)-1-(2-oxo-2-(phenylamino)ethyl)piperidin-4-yl)methyl)benzamide] | – | 44 | –
22 | O=C(N[C@@H]1CCC12CCN(CCc1ccccc1)CC2)c1ccccc1 [Example 111] | – | 30 | IC50: 1.5 µM
23 | O=C(N[C@H]1CCC12CCN(CCc1ccccc1)CC2)c1ccccc1 [Example 112] | – | 24 | –
24 | O=C(Nc1nnc(-c2ccc(Cl)s2)o1)c1ccccc1 [Example 117, N-(5-(5-Chlorothiophen-2-yl)-1,3,4-oxadiazol-2-yl)benzamide] | – | 24 | –
25 | O=C(CCc1cccc(Cl)c1)Nc1nnc(-c2ccccc2)o1 [Example 119, 3-(3-Chlorophenyl)-N-(5-phenyl-1,3,4-oxadiazol-2-yl)propanamide] | – | – | inhibition at 3 µM (HEK293, Table 1 primary screening, 3 μM as indicated in cell, read-out: % inhibition at 3 μM): 5%
26 | O=C(CCc1ccc(Cl)c(Cl)c1)Nc1nnc(-c2ccc(Cl)s2)o1 [Example 120, N-(5-(5-Chlorothiophen-2-yl)-1,3,4-oxadiazol-2-yl)-3-(3,4-dichlorophenyl)propanamide] | – | 9.2 | –
27 | O=C(Cc1cccc(Cl)c1)Nc1nnc(-c2ccc(Cl)s2)o1 [Example 121, 2-(3-Chlorophenyl)-N-(5-(5-chlorothiophen-2-yl)-1,3,4-oxadiazol-2-yl)acetamide] | – | 75 | –
28 | Cc1cc(C(=O)Nc2nnc(-c3ccccc3)o2)no1 [Example 122, 5-Methyl-N-(5-phenyl-1,3,4-oxadiazol-2-yl)isoxazole-3-carboxamide] | – | 14.9 | –
29 | O=C(Nc1nnc(-c2ccccc2)o1)c1cnccn1 [Example 124, N-(5-Phenyl-1,3,4-oxadiazol-2-yl)pyrazine-2-carboxamide] | – | 7.1 | –
30 | Cc1cc(C(=O)Nc2nnc(-c3ccccc3F)o2)no1 [Example 126, N-(5-(2-Fluorophenyl)-1,3,4-oxadiazol-2-yl)-5-methylisoxazole-3-carboxamide] | – | 5.9 | –
31 | O=C(Nc1nnc(-c2ccccc2F)o1)c1cnccn1 [Example 127, N-(5-(2-Fluorophenyl)-1,3,4-oxadiazol-2-yl)pyrazine-2-carboxamide] | – | 8.5 | –
32 | CC(C)(C)CCN1CCC2(CC1)CC2NC(=O)c1cc(C(F)(F)F)ccc1Cl (stereo not shown) [Example 142, 2-Chloro-N-(6-(3,3-dimethylbutyl)-6-azaspiro[2.5]octan-1-yl)-5-(trifluoromethyl)benzamide] | 0.09 | – | –
33 | CC(C)(C)NC(=O)CN1CCC2(CC1)CC2NC(=O)C12CC3CC(CC(C3)C1)C2 (stereo not shown) [Example 143, N-(6-(2-(tert-Butylamino)-2-oxoethyl)-6-azaspiro[2.5]octan-1-yl)adamantane-1-carboxamide] | 0.29 | – | –
